Legend:
HL-60 = assay: Dosage required for differentiation of HL-60 cells to monocytes; format: functional, Homo sapiens
[1] = Dose required to inhibit proliferation of human peripheral blood mononuclear cells (PMBC); format: functional
Mus musculus = assay: Dose required to induce hypercalcemia after administration in mice; format: functional

| Compound | Dose (HL-60) [nM] | Dose [1] [nM] | Dose (Mus musculus) [µg/kg] |
| --- | --- | --- | --- |
| C=C1/C(=C\C=C2/CCC[C@]3(C)[C@@H]2CC[C@H]3[C@@H](C)CCCC(C)(C)O)C[C@@H](O)C[C@@H]1O | 100 | 100 | – |
| C=C1/C(=C\C=C2/CCC[C@]3(C)[C@@H]([C@H](C)CCCC(C)(C)O)CC[C@@H]23)C[C@@H](O)C[C@@H]1O [CALCITRIOL] | – | – | 0.1 |
